Source: ChEMBL document CHEMBL1151183, “New pigments from the terrestrial cyanobacterium Scytonema sp. collected on the Mitaraka inselberg, French Guyana” (J Nat Prod, 2004)
The source made the active and inactive calls.

Experiments:
Staphylococcus aureus = assay: Antimicrobial activity against Staphylococcus aureus ATCC 6538 at 1 uM; format: functional, organism-based
KB = assay: Cytotoxicity against human KB cells at 0.1 uM; format: functional, cell-based
Escherichia coli = assay: Antimicrobial activity against Escherichia coli ATCC 8739 at 1 uM; format: functional, organism-based
Candida tropicalis = assay: Antimicrobial activity against Candida tropicalis IP 209.73 at 1 uM; format: functional, organism-based

Measured: Activity

COC(c1ccc(O)cc1)C1(OC)C(=O)/C(=C2/C(=O)/C(=C/c3ccc(O)cc3)c3[nH]c4ccccc4c32)c2c1[nH]c1ccccc21 (configuration not stated)
inactive: Staphylococcus aureus | KB Not toxic | Escherichia coli | Candida tropicalis

COC(c1ccc(O)cc1)C1(OC)C(=O)/C(=C2/C(=O)C(OC)(C(OC)c3ccc(O)cc3)c3[nH]c4ccccc4c32)c2c1[nH]c1ccccc21 (configuration not stated)
inactive: Staphylococcus aureus | KB Not toxic | Escherichia coli | Candida tropicalis

COC(=O)C1=C(c2c(/C(=C\c3ccc(O)cc3)C(=O)OC)[nH]c3ccccc23)C(=O)c2[nH]c3ccccc3c21
inactive: Staphylococcus aureus | KB Not toxic | Escherichia coli | Candida tropicalis
